Values quoted from earlier work in patent publication US20180148781A1, “Antioxidant Compounds For Cleave Formulations That Support Long Reads In Sequencing-By-Synthesis” (QIAGEN Waltham, Inc., priority 2016, published 2018).

Conditions: pH 7.4

fraction present in mono-anionic form as ascorbate: 99.95%
Compound: O=C1O[C@H]([C@@H](O)CO)C(O)=C1O [Ascorbic Acid]
